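Cultured in 96-well plates, cells were exposed to test compound for 48 hours across five concentrations. Definition used: TGI = concentration required for complete inhibition of growth.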
Tests used:
Assay in all cases: NCI tumour cell line growth inhibition, 48 h
786-0 renal = test system: 786-0 renal
A498 renal = test system: A498 renal
A549 NSCLC = test system: A549 NSCLC
ACHN renal = test system: ACHN renal
BT-549 breast = test system: BT-549 breast
CAKI-1 renal = test system: CAKI-1 renal
CCRF-CEM leukemia = test system: CCRF-CEM leukemia
COLO 205 colon = test system: COLO 205 colon
DU-145 prostate = test system: DU-145 prostate
EKVX NSCLC = test system: EKVX NSCLC
HCC-2998 colon = test system: HCC-2998 colon
HCT-116 colon = test system: HCT-116 colon
HCT-15 colon = test system: HCT-15 colon
HL-60(TB) leukemia = test system: HL-60(TB) leukemia
HOP-62 NSCLC = test system: HOP-62 NSCLC
HOP-92 NSCLC = test system: HOP-92 NSCLC
HS 578T breast = test system: HS 578T breast
HT29 colon = test system: HT29 colon
IGROV1 ovarian = test system: IGROV1 ovarian
KM12 colon = test system: KM12 colon
M14 melanoma = test system: M14 melanoma
MALME-3M melanoma = test system: MALME-3M melanoma
MCF7 breast = test system: MCF7 breast
MDA-MB-435 = test system: MDA-MB-435
MDA-N = test system: MDA-N
MOLT-4 leukemia = test system: MOLT-4 leukemia
NCI-H23 lung = test system: NCI-H23 lung
NCI-H460 lung = test system: NCI-H460 lung
NCI-H522 lung = test system: NCI-H522 lung
OVCAR-3 ovarian = test system: OVCAR-3 ovarian
OVCAR-4 ovarian = test system: OVCAR-4 ovarian
OVCAR-5 ovarian = test system: OVCAR-5 ovarian
OVCAR-8 ovarian = test system: OVCAR-8 ovarian
PC-3 prostate = test system: PC-3 prostate
RPMI-8226 leukemia = test system: RPMI-8226 leukemia
RXF 393 renal = test system: RXF 393 renal
SF-268 CNS = test system: SF-268 CNS
SF-295 CNS = test system: SF-295 CNS
SF-539 CNS = test system: SF-539 CNS
SK-MEL-28 melanoma = test system: SK-MEL-28 melanoma
SK-MEL-5 melanoma = test system: SK-MEL-5 melanoma
SK-OV-3 ovarian = test system: SK-OV-3 ovarian
SN12C renal = test system: SN12C renal
SNB-19 CNS = test system: SNB-19 CNS
SNB-75 CNS = test system: SNB-75 CNS
SR leukemia = test system: SR leukemia
SW-620 colon = test system: SW-620 colon
TK-10 renal = test system: TK-10 renal
U251 CNS = test system: U251 CNS
UACC-257 melanoma = test system: UACC-257 melanoma
UACC-62 melanoma = test system: UACC-62 melanoma
UO-31 renal = test system: UO-31 renal

Measured: TGI

N=C(N)C1CN(CCc2cnc[nH]2)C(=O)NC1=O (stereo not given)
> 100 µM: all assays above

NC(=O)c1cc(-c2ccc(-n3ccnc3)cc2)n[nH]c1=O
not listed: HT29 colon | KM12 colon | OVCAR-3 ovarian | SF-295 CNS
> 100 µM: all other assays above

Reference: PubChem BioAssay (NCI)
